Source: US9700637B2, “Reaction-based fluorescent probes for detecting zinc” (Massachusetts Institute of Technology, priority 2013, dated 2017)

Key:
[1] = Metal ion selectivity of fluorescence response; format: physicochemical; settings: 50 mM PIPES pH 7, 100 mM KCl, 25° C.
Experimental: FIG. 22 depicts metal ion selectivity of DA-ZP1-TPP. Average normalized fluorescence intensities for a 1.1 μM solution of DA-ZP1-TPP in 50 mM PIPES buffer (pH 7) with 100 mM KCl at 25° C., after addition of 50 μM-2 mM concentrations of various metal ions (white bars), followed by addition of 50 μM ZnCl2 (black bars). The grey column represents the average sensor intensity after addition of 100 μM EDTA. Data were normalized to initial measured emission intensity at λex=495 nm.
DA-ZP1-TPP has a zinc-induced fluorescence response and is relatively stable to uncatalyzed hydrolysis and esterase activity. […] Other late 3d-block transition metal ions, such as Co(II) and Cu(II), can coordinate to DA-ZP1-TPP but are generally not available in appreciable chelatable quantities within the cell. In addition to monitoring selectivity in the fluorescence response, we used UV-vis spectroscopy to investigate the rate and zinc-specificity of metal-mediated ester hydrolysis. […] By monitoring the absorbance of the xanthene it system, we could interrogate deacetylation kinetics in a manner that is independent of the fluorescence response. […] To determine whether ester hydrolysis depends on the metal-binding core of DA-ZP1-TPP, we measured the deacetylation kinetics of fluorescein diacetate (DA-FL) under analogous conditions. […]

[2] = Deacetylation kinetics monitored by UV-vis absorbance (metal-mediated and uncatalyzed hydrolysis); format: physicochemical; settings: 2.75 μM, 125 μM ZnCl2, 37° C., 50 mM PIPES pH 7, 100 mM KCl, absorbance 510 nm
Experimental: FIG. 23 depicts kinetic traces for the deacetylation of DA-ZP1-TPP. The half-life for deacetylation of a 2.75 μM solution of DA-ZP1-TPP, at 37° C. in 50 mM PIPES buffer (pH 7) and 100 mM KCl, was measured in the presence of 125 μM ZnCl2 (+Zn), 250 μM EDTA (−Zn), or 1.25 units of porcine liver esterase (Esterase). The change in absorbance at 520 nm (EDTA and esterase) or 510 nm (ZnCl2) was used to monitor the reaction.
FIG. 26 depicts in vitro characterization of DA-ZP1-A3. (a) UV-vis and (b) fluorescence spectra of a 5 μM solution of DA-ZP1-A3 in buffer (50 mM PIPES, 100 mM KCl; pH 7). Spectra were acquired initially, upon addition of 100 μM ZnCl2, and again after addition of 200 μM EDTA. (c) Time-dependent change in the normalized absorbance of a ca. 5 μM solution DA-ZP1-A3 at 37° C. in buffer (50 mM PIPES, 100 mM KCl; pH 7) in the presence of 100 μM ZnCl2 (λabs=510 nm) or EDTA (λabs=520 nm). (d) Integrated fluorescence intensity of a 1 μM solution of ZP1-A3 (circles) or DA-ZP1-A3 (squares) as a function of pH. […]
DA-ZP1-TPP has a zinc-induced fluorescence response and is relatively stable to uncatalyzed hydrolysis and esterase activity. […] Other late 3d-block transition metal ions, such as Co(II) and Cu(II), can coordinate to DA-ZP1-TPP but are generally not available in appreciable chelatable quantities within the cell. […]

CC(=O)Oc1c(Cl)cc2c(c1CN(Cc1ccccn1)Cc1ccccn1)Oc1c(cc(Cl)c(OC(C)=O)c1CN(Cc1ccccn1)Cc1ccccn1)C21OC(=O)c2ccc(C(=O)NCC[P+](c3ccccc3)(c3ccccc3)c3ccccc3)cc21 [DA-ZP1-TPP]
metal ion selectivity of fluorescence response [1]: responds to Zn(II) over biologically relevant cations such as Ca(II) and Mg(II) | kobs of zinc-induced deacetylation [2]: 0.0855 ± 0.019 s⁻¹
